pKi: −log10 of the molar value.
What was measured:
[1] = biological target: 5-hydroxytryptamine receptor 1D (Homo sapiens) (UniProt P28221); assay: 5-HT1D CEREP ligand profiling; conditions: Compound concentration 10.0 uM
[2] = biological target: Adenosine receptor A2a (Homo sapiens) (UniProt P29274); assay: A2A (h) CEREP ligand profiling; conditions: Compound concentration 10.0 uM
[3] = biological target: T1, Alpha-2B adrenergic receptor (Homo sapiens) (UniProt P18089); assay: alpha 2B (h) CEREP ligand profiling; conditions: Compound concentration 10.0 uM
T1 sequence (whole entry): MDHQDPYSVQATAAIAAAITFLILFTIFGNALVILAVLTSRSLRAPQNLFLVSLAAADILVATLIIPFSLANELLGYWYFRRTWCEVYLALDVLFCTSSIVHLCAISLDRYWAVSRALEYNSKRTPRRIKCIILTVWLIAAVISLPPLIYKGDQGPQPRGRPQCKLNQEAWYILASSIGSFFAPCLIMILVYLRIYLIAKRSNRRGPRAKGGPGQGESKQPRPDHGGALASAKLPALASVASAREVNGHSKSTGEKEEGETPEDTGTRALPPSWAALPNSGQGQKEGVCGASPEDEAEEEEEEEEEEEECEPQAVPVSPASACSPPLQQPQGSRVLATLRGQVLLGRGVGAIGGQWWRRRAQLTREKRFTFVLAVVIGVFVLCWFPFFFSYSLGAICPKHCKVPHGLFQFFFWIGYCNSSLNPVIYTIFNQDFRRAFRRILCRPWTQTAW

[4] = biological target: Sodium/potassium-transporting ATPase (Homo sapiens) (UniProt P05023+P14415+P05026+P50993+P54709+P13637+Q13733+P54710); assay: ATPase (Na+/K+) CEREP ligand profiling; assay type: protein-complex assay; conditions: Compound concentration 10.0 uM
[5] = biological target: Beta-1 adrenergic receptor (Homo sapiens) (UniProt P08588); assay: beta 1 (h) CEREP ligand profiling; conditions: Compound concentration 10.0 uM
Sequence of Beta-1 adrenergic receptor (Homo sapiens) (P08588 whole entry, looked up): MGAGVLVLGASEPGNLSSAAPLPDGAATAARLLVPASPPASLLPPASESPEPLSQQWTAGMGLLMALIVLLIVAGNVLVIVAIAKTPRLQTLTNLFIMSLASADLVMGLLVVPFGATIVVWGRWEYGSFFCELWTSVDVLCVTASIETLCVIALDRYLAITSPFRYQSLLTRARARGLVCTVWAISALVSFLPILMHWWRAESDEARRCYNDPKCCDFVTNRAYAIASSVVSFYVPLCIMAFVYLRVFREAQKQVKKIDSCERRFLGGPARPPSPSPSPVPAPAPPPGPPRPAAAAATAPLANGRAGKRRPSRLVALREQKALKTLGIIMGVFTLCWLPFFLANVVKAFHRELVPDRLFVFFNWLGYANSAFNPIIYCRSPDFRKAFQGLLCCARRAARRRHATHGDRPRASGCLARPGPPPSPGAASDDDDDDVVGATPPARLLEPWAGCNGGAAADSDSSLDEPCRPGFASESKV

[6] = biological target: D(2) dopamine receptor (Homo sapiens) (UniProt P14416); assay: D2S (h) (agonist site) CEREP ligand profiling; conditions: Compound concentration 10.0 uM
[7] = biological target: Sodium- and chloride-dependent GABA transporter 1 (Homo sapiens) (UniProt P30531); assay: GABA transporter CEREP ligand profiling; conditions: Compound concentration 10.0 uM
[8] = biological target: Matrix metalloproteinase-9 (Homo sapiens) (UniProt P14780); assay: MMP-9 (h) CEREP ligand profiling; conditions: Compound concentration 10.0 uM
[9] = biological target: Sodium-dependent noradrenaline transporter (Homo sapiens) (UniProt P23975); assay: NE transporter (h) CEREP ligand profiling; conditions: Compound concentration 10.0 uM
Sequence of Sodium-dependent noradrenaline transporter (Homo sapiens) (P23975 whole entry): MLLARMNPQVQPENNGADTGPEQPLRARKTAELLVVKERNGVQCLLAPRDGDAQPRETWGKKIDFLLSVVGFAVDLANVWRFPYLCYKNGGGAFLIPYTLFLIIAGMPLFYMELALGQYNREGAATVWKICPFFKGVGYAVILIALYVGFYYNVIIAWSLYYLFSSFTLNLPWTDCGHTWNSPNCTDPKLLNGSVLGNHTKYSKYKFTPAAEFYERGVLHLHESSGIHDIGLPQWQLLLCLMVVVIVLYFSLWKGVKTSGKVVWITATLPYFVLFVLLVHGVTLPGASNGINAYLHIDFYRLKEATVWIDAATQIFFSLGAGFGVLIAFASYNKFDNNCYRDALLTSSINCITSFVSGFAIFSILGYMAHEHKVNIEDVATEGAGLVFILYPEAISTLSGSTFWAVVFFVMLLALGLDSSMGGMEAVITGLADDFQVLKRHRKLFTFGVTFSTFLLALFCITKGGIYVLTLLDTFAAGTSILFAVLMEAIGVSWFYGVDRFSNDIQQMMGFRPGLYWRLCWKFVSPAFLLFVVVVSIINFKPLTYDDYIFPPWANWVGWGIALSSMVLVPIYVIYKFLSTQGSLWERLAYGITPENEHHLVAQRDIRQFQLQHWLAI

Phosphodiesterase 3 = Phosphodiesterase 3 (Homo sapiens, UniProt Q14432+Q13370); assay: PDE3 (h) CEREP ligand profiling; assay type: protein assay
[10] = biological target: Peroxisome proliferator-activated receptor gamma (Homo sapiens) (UniProt P37231); assay: PPAR gamma (h) CEREP ligand profiling; conditions: Compound concentration 10.0 uM
[11] = biological target: Tyrosine-protein kinase ZAP-70 (Homo sapiens) (UniProt P43403); assay: ZAP70 kinase (h) CEREP ligand profiling; conditions: Compound concentration 10.0 uM
Sequence of Tyrosine-protein kinase ZAP-70 (Homo sapiens) (P43403 whole entry): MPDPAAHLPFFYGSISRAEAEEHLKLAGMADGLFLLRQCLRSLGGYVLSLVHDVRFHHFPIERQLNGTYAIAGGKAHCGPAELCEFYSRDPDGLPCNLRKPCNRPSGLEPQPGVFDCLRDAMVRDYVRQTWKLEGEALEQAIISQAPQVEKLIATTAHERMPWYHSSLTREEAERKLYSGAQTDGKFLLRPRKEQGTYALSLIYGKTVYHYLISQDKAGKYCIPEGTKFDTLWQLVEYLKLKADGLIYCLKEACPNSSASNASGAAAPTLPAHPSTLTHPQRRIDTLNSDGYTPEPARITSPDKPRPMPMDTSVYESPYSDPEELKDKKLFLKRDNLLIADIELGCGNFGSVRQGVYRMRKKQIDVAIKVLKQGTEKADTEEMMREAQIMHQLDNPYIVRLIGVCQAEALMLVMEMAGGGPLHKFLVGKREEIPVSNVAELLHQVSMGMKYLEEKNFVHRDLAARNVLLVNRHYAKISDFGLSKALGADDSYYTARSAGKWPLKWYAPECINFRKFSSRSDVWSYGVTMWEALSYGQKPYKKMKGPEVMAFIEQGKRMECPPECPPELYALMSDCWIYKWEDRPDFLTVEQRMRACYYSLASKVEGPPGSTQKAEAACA

[12] = biological target: Bone morphogenetic protein receptor type-2 (Homo sapiens) (UniProt Q13873); conditions: Compound concentration 1000.0 nM
[13] = biological target: Cyclin-dependent kinase 4 (Homo sapiens) (UniProt P11802); conditions: Compound concentration 1000.0 nM
[14] = biological target: Ephrin type-B receptor 3 (Homo sapiens) (UniProt P54753); conditions: Compound concentration 1000.0 nM
[15] = biological target: Glycogen synthase kinase-3 alpha (Homo sapiens) (UniProt P49840); conditions: Compound concentration 1000.0 nM
[16] = biological target: Homeodomain-interacting protein kinase 2 (Homo sapiens) (UniProt Q9H2X6); conditions: Compound concentration 1000.0 nM
[17] = tested on: Mast/stem cell growth factor receptor Kit (Homo sapiens), P10721 [D816H]; conditions: Compound concentration 1000.0 nM
[18] = biological target: Tyrosine-protein kinase Lck (Homo sapiens) (UniProt P06239); conditions: Compound concentration 1000.0 nM
[19] = biological target: Mitogen-activated protein kinase kinase kinase 3 (Homo sapiens) (UniProt Q99759); conditions: Compound concentration 1000.0 nM
[20] = biological target: Mitogen-activated protein kinase kinase kinase 4 (Homo sapiens) (UniProt Q9Y6R4); conditions: Compound concentration 1000.0 nM
[21] = biological target: Myosin light chain kinase, smooth muscle (Homo sapiens) (UniProt Q15746); conditions: Compound concentration 1000.0 nM
Sequence of Myosin light chain kinase, smooth muscle (Homo sapiens) (Q15746 whole entry): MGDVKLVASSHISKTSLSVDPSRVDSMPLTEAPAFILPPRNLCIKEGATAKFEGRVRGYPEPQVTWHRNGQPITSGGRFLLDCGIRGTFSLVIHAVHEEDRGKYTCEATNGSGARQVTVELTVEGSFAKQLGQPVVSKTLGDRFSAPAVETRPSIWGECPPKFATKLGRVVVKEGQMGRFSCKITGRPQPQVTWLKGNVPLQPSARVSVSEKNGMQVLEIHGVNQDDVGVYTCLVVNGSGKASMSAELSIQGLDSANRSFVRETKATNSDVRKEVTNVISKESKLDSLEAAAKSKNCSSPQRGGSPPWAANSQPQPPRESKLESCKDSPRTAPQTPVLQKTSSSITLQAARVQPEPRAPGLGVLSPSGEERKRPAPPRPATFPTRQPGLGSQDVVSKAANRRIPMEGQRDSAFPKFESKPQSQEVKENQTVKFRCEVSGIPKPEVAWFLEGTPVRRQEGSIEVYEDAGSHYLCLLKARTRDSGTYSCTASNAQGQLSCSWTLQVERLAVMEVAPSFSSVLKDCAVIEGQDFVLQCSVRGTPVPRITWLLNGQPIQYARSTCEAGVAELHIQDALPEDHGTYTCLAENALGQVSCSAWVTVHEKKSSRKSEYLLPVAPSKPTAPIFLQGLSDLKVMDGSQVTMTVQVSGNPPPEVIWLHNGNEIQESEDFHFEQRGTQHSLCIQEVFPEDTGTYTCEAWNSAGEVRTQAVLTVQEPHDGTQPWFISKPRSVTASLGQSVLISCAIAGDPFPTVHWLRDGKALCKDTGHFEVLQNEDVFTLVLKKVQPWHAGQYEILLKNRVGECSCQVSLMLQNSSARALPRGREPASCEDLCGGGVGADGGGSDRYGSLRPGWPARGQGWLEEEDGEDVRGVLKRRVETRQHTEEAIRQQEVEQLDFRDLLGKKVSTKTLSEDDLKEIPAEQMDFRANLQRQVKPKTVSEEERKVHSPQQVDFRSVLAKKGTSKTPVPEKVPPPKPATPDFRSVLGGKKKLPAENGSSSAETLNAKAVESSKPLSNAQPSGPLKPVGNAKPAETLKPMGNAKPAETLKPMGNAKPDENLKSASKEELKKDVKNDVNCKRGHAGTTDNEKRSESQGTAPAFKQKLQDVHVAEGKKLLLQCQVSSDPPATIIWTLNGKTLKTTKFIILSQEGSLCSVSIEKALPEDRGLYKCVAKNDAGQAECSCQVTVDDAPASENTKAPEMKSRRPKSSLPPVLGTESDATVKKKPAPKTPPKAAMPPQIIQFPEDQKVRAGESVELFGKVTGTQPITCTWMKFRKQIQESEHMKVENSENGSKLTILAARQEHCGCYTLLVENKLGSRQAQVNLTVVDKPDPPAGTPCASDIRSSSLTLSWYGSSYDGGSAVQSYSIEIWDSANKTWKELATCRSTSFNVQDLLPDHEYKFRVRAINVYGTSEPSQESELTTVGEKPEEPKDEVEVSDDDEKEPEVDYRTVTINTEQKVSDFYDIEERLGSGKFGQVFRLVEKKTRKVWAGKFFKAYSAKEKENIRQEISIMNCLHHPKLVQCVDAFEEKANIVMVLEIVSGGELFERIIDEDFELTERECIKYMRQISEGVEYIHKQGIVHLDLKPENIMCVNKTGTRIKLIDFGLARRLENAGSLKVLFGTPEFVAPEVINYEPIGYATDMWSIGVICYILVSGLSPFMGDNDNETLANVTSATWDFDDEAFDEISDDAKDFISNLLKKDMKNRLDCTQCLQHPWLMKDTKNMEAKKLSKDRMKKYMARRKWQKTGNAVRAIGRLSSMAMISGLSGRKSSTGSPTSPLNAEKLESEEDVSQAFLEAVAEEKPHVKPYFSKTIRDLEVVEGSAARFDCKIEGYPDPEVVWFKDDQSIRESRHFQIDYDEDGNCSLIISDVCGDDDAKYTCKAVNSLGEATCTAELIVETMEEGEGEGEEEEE

[22] = biological target: Mitogen-activated protein kinase kinase kinase 14 (Homo sapiens) (UniProt Q99558); conditions: Compound concentration 1000.0 nM
Sequence of Mitogen-activated protein kinase kinase kinase 14 (Homo sapiens) (Q99558 whole entry, looked up, canonical isoform): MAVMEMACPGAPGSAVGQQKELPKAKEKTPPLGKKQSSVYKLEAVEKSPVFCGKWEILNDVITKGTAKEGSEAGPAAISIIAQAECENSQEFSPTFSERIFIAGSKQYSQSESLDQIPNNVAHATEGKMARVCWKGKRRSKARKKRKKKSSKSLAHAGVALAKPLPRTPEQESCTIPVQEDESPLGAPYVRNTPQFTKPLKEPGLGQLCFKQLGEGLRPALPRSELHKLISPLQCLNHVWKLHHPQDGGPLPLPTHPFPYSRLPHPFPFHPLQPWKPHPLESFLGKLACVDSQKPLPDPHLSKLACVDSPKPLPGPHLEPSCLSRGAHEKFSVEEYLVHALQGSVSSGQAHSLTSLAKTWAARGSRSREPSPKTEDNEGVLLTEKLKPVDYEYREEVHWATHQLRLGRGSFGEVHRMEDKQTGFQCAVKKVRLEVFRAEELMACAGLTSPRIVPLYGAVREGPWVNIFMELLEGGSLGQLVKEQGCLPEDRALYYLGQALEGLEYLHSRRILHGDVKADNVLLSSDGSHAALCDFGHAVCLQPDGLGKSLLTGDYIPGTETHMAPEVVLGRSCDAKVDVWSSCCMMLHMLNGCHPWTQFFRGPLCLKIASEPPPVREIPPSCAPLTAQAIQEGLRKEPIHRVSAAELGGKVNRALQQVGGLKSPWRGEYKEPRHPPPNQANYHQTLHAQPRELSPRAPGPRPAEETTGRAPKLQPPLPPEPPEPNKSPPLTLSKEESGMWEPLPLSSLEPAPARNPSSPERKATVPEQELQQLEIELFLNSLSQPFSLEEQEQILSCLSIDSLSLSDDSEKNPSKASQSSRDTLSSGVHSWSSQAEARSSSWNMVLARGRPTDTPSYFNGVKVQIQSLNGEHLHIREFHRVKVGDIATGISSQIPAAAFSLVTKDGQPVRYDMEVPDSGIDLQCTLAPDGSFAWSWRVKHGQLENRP

[23] = tested on: Phosphatidylinositol 4,5-bisphosphate 3-kinase catalytic subunit alpha isoform (Homo sapiens), P42336 [E542K]; conditions: Compound concentration 1000.0 nM
[24] = biological target: Serine/threonine-protein kinase pim-3 (Homo sapiens) (UniProt Q86V86); conditions: Compound concentration 1000.0 nM
[25] = biological target: Serine/threonine-protein kinase PLK3 (Homo sapiens) (UniProt Q9H4B4); conditions: Compound concentration 1000.0 nM
[26] = biological target: Ribosomal protein S6 kinase alpha-4 (Homo sapiens) (UniProt O75676); conditions: Compound concentration 1000.0 nM
[27] = biological target: Serine/threonine-protein kinase SIK1 (Homo sapiens) (UniProt P57059); conditions: Compound concentration 1000.0 nM
[28] = biological target: Serine/threonine-protein kinase 36 (Homo sapiens) (UniProt Q9NRP7); conditions: Compound concentration 1000.0 nM
[29] = biological target: Mitogen-activated protein kinase kinase kinase 7 (Homo sapiens) (UniProt O43318); conditions: Compound concentration 1000.0 nM
[30] = biological target: Transient receptor potential cation channel subfamily M member 6 (Homo sapiens) (UniProt Q9BX84); conditions: Compound concentration 1000.0 nM
[31] = biological target: Serine/threonine-protein kinase ULK1 (Homo sapiens) (UniProt O75385); conditions: Compound concentration 1000.0 nM
[32] = biological target: Serine/threonine-protein kinase ULK2 (Homo sapiens) (UniProt Q8IYT8); conditions: Compound concentration 1000.0 nM
[33] = biological target: Serine/threonine-protein kinase 32A (Homo sapiens) (UniProt Q8WU08); conditions: Compound concentration 1000.0 nM
Sequence of Serine/threonine-protein kinase 32A (Homo sapiens) (Q8WU08 whole entry): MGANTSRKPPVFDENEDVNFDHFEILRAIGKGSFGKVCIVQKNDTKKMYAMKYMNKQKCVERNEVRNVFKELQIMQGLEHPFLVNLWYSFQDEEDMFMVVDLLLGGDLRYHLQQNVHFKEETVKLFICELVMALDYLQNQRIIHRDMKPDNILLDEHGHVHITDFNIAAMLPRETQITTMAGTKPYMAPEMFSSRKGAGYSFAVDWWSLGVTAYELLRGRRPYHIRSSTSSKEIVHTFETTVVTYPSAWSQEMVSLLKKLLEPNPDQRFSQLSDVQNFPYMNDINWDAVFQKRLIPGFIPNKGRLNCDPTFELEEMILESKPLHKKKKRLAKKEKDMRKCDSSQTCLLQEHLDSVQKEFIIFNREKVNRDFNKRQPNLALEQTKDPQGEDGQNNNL

[34] = biological target: Mitogen-activated protein kinase kinase kinase 19 (Homo sapiens) (UniProt Q56UN5); conditions: Compound concentration 1000.0 nM
[35] = biological target: Acetylcholine receptor, muscle-type, subunit alpha-1 (Homo sapiens) (UniProt P02708); assay: N (muscle-type) (h) CEREP ligand profiling; conditions: Compound concentration 10.0 uM
D(1A) dopamine receptor = D(1A) dopamine receptor (Homo sapiens, UniProt P21728); assay: GPCRScan assay: inhibition of D1; set-up: radioligand conc. used [nm] 0.6 – 1.3, parental cells HEKT
[36] = biological target: Beta-1 adrenergic receptor (Homo sapiens) (UniProt P08588); conditions: Compound concentration 10.0 uM
Rattus norvegicus = organism: Rattus norvegicus; conditions: Compound concentration 10.0 uM

COc1ccc2cc(OCC3(C(=O)O)CN(C(=O)c4ccc(F)cc4)C3)ccc2c1 [PF-04418948]
inactive: inhibition [1] -10% | inhibition [2] -9% | inhibition [3] 1% | inhibition [4] 5% | inhibition [5] 9% | inhibition [6] -6% | inhibition [7] 14% | inhibition [8] 10% | inhibition [9] -2% | inhibition (Phosphodiesterase 3; Compound concentration 10.0 uM) 78% | inhibition [10] 14% | inhibition [11] 9% | residual activity [12] 87% | residual activity [13] 90% | residual activity [14] 99% | residual activity [15] 96% | residual activity [16] 78% | residual activity [17] 82% | residual activity [18] 80% | residual activity [19] 97% | residual activity [20] 65% | residual activity [21] 84% | residual activity [22] 82% | residual activity [23] 50% | residual activity [24] 98% | residual activity [25] 95% | residual activity [26] 85% | residual activity [27] 97% | residual activity [28] 89% | residual activity [29] 96% | residual activity [30] 98% | residual activity [31] 92% | residual activity [32] 89% | residual activity [33] 97% | residual activity [34] 82% | inhibition [35] -10%
3.5 µM: IC50 (Phosphodiesterase 3)

O=C(c1ccc(F)cc1)N1CC(COc2ccc(Br)cc2)(C(=O)O)C1 [PF-04475866]
5.00: pKi (D(1A) dopamine receptor)
inactive: inhibition [36] -6.66% | inhibition (Rattus norvegicus) 16.3%
